Data on 13 compounds can be found in PubChem BioAssay (NCI).

SMILES strings stand for the structures.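 Step 1: Grow cells in 96-well plates. Step 2: Expose to compound for 48 hours at 5 concentrations. Step 3: Interpolate endpoints linearly; if unreached, use highest concentration. TGI: total growth inhibition.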

Test systems include MDA-N; NCI-H522 lung; NCI-H226 lung; NCI/ADR-RES ovarian; RXF 393 renal; OVCAR-5 ovarian; OVCAR-3 ovarian; MCF7 breast; DU-145 prostate; HOP-92 NSCLC.
Holding throughout (test): growth of human tumour cells (NCI), 48 h

Take `CC(=O)O[C@H]1CC[C@@H](OC(C)=O)[C@H]2[C@H](O)[C@H](O)[C@@H]1n1c(=O)n(-c3ccccc3)c(=O)n12`: the TGI with MDA-N, in the test with NCI-H522 lung, with NCI-H226 lung, in the test with NCI/ADR-RES ovarian, in the test on RXF 393 renal and in the test with OVCAR-5 ovarian was > 100 µM in each case. Moreover, the TGI in the test with OVCAR-3 ovarian, in the test with MCF7 breast, in the test on DU-145 prostate and in the test on HOP-92 NSCLC was > 100 µM in each case.

`Cn1c2c(c3c(=O)[nH]ncc31)Cc1ccccc1-2`: the TGI was 34.8 µM in the test on MDA-N; > 100 µM in the test on NCI-H522 lung; 61.9 µM with NCI-H226 lung; > 100 µM in the test with NCI/ADR-RES ovarian; 32.4 µM in the test on RXF 393 renal; > 100 µM in the test with OVCAR-5 ovarian. Moreover, the TGI with OVCAR-3 ovarian was found to be 41.2 µM; in the test with MCF7 breast, 56.5 µM; in the test with DU-145 prostate, 50.7 µM; in the test with HOP-92 NSCLC it was 69.4 µM.

Take `CC(=O)Oc1cc2c(cc1OCC(F)(F)F)[C@H]1CC[C@]3(C)[C@@H](OC(C)=O)CC[C@H]3[C@@H]1CC2=O`: the TGI with MDA-N was > 100 µM; in the test on NCI-H522 lung it was > 70 µM; in the test on NCI-H226 lung, > 100 µM; in the test with NCI/ADR-RES ovarian it was 43.6 µM; with RXF 393 renal, 50 µM; in the test with OVCAR-5 ovarian, 44.5 µM. The TGI in the test with OVCAR-3 ovarian was 45.6 µM; in the test on MCF7 breast it was > 75.6 µM; with DU-145 prostate, 51.6 µM; in the test with HOP-92 NSCLC it was 40.2 µM.

As to `Cc1ccc(C(=O)Nc2ccc(CP(=O)(O)O)cc2CP(=O)(O)O)cc1N`, the TGI in the test with MDA-N, in the test with NCI-H522 lung, in the test on NCI-H226 lung, in the test with NCI/ADR-RES ovarian, in the test on RXF 393 renal and with OVCAR-5 ovarian was > 100 µM each time. Besides, the TGI in the test with OVCAR-3 ovarian, in the test with MCF7 breast, in the test with DU-145 prostate and with HOP-92 NSCLC was > 100 µM throughout.

For the compound `Clc1[nH]nc2ccccc12`, the TGI in the test on MDA-N, in the test with NCI-H522 lung, in the test with NCI-H226 lung, with NCI/ADR-RES ovarian, in the test on RXF 393 renal and with OVCAR-5 ovarian was > 100 µM throughout. The TGI in the test with OVCAR-3 ovarian, in the test on MCF7 breast, with DU-145 prostate and in the test on HOP-92 NSCLC was > 100 µM throughout.

With `COc1cccc2c(=O)oc(-c3ccccc3C)nc12`, the TGI in the test with MDA-N was 39.1 µM; in the test on NCI-H522 lung, > 100 µM; in the test with NCI-H226 lung, 57.8 µM; with NCI/ADR-RES ovarian, > 100 µM; with RXF 393 renal, > 100 µM; in the test with OVCAR-5 ovarian, > 100 µM. Moreover, the TGI in the test on OVCAR-3 ovarian, with MCF7 breast, in the test with DU-145 prostate and in the test with HOP-92 NSCLC was > 100 µM each time.

For `Cc1cc(NC(=O)NC(=O)c2ccccc2NC(=O)CN(C)C)ccc1Oc1ncc(Br)cn1`, the TGI was 0.505 µM in the test on MDA-N; 10.3 µM in the test with NCI-H522 lung; > 92.7 µM with NCI-H226 lung; > 27.8 µM with NCI/ADR-RES ovarian; 22.8 µM with RXF 393 renal; > 100 µM in the test on OVCAR-5 ovarian. Moreover, the TGI was 13.1 µM with OVCAR-3 ovarian, > 100 µM in the test with MCF7 breast, > 100 µM in the test with DU-145 prostate and > 100 µM with HOP-92 NSCLC.

Consider `COc1cc2c(cc1O)C(Cc1ccc(OCc3ccccc3)c(OCc3ccccc3)c1)N(C(=O)NCCc1ccccc1)CC2` (stereo not given), for which the TGI was > 100 µM in the test on MDA-N; 72.9 µM with NCI-H522 lung; > 100 µM with NCI-H226 lung; > 100 µM in the test on NCI/ADR-RES ovarian; > 100 µM with RXF 393 renal; > 100 µM in the test with OVCAR-5 ovarian. In addition, the TGI in the test on OVCAR-3 ovarian, in the test on MCF7 breast, in the test with DU-145 prostate and with HOP-92 NSCLC was > 100 µM throughout.

In the case of `BrC1(c2ccccc2)C[n+]2c(-c3ccccc3)cc(-c3ccccc3)cc2-c2ccccc21` (stereo not given), the TGI in the test with MDA-N turned out to be 1.69 µM; in the test on NCI-H522 lung, 11.3 µM; in the test on NCI-H226 lung it was 12.2 µM; with NCI/ADR-RES ovarian, 65.5 µM; in the test with RXF 393 renal, 0.635 µM; in the test on OVCAR-5 ovarian, 4.1 µM. The TGI with OVCAR-3 ovarian worked out at 0.466 µM; in the test with MCF7 breast, 0.735 µM; in the test on DU-145 prostate, 13.2 µM; with HOP-92 NSCLC it was 3.7 µM.

Consider `CC(C)CNP(=O)(NCC(C)C)Oc1ccc(CC(NC(=O)OCc2ccccc2)C(=O)OCc2ccccc2)cc1` (stereo not given), for which the TGI is 36 µM in the test on MDA-N; 30.5 µM in the test with NCI-H522 lung; > 100 µM in the test with NCI-H226 lung; > 100 µM in the test with NCI/ADR-RES ovarian; 36.2 µM in the test with RXF 393 renal; > 100 µM in the test on OVCAR-5 ovarian. Further, the TGI was 16 µM with OVCAR-3 ovarian, 24.7 µM with MCF7 breast, 24.3 µM in the test with DU-145 prostate and > 100 µM with HOP-92 NSCLC.

As for `COc1ccc(C2C(=O)c3ccc(OC)cc3OC2c2cccnc2)cc1` (stereo not given), the TGI in the test with MDA-N, in the test on NCI-H522 lung, in the test with NCI-H226 lung, in the test on NCI/ADR-RES ovarian, in the test on RXF 393 renal and in the test on OVCAR-5 ovarian was > 100 µM in each case. Besides, the TGI was > 100 µM with OVCAR-3 ovarian, > 100 µM in the test on MCF7 breast, > 100 µM with DU-145 prostate and 97.1 µM in the test with HOP-92 NSCLC.

Consider `CCOC(=O)N1CCNCCN(C(=O)OCC)CCNCC1`, for which the TGI in the test on MDA-N, in the test with NCI-H522 lung, in the test with NCI-H226 lung, in the test on NCI/ADR-RES ovarian, in the test on RXF 393 renal and in the test on OVCAR-5 ovarian was > 100 µM in each case. Moreover, the TGI in the test with OVCAR-3 ovarian, with MCF7 breast, with DU-145 prostate and in the test on HOP-92 NSCLC was > 100 µM in each case.

Take `Cc1nnc(SCc2nc(C#N)c(C#N)nc2CSc2nnc(C)s2)s1`: the TGI with MDA-N is 49.9 µM; in the test on NCI-H522 lung, 9.22 µM; with NCI-H226 lung, 54.1 µM; in the test on NCI/ADR-RES ovarian, > 92.2 µM; in the test with RXF 393 renal, 18 µM; with OVCAR-5 ovarian it was 34.5 µM. The TGI in the test with OVCAR-3 ovarian turned out to be 20.7 µM; in the test with MCF7 breast, 34.3 µM; in the test with DU-145 prostate, 29.2 µM; in the test on HOP-92 NSCLC, 26.8 µM.
